The values that follow come from ChEMBL document CHEMBL3045967, “Discovery of imidazole glycerol phosphate dehydratase inhibitors through 3-D database searching” (Bioorg Med Chem Lett, 2002).

Active and inactive are the calls of the source. The calls are words filed in the database; no cut-off is given here.

For the first assay, the target named is Histidine biosynthesis bifunctional protein HisB (Escherichia coli O26:H11 str. CFSAN001629) (UniProt P06987). Put plainly: (§1) Inhibition of Escherichia coli imidazoleglycerol phosphate dehydratase using imidazole glycerol phosphate as substrate incubated for 30 min prior to substrate addition measured for 16 min by spectrophotometric analysis.
Histidine biosynthesis bifunctional protein HisB (Escherichia coli O26:H11 str. CFSAN001629), sequence (P06987 whole entry): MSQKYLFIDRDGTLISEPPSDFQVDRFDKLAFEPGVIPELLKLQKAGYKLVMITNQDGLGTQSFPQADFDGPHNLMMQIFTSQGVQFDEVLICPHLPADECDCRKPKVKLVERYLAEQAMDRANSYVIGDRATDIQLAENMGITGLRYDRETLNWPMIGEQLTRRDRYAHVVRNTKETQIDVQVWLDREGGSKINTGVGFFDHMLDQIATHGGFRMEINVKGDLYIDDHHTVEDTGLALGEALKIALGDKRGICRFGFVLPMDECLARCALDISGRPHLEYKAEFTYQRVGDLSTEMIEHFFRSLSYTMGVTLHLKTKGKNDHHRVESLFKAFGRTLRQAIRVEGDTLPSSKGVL
Regarding `CCOC(=O)c1[nH]c(C)c(C(=O)OC)c1C`, the inhibition entry is “inactive”.

In a further assay the target is Histidine biosynthesis bifunctional protein HisB (Escherichia coli O26:H11 str. CFSAN001629, UniProt P06987). Described as §1.
Histidine biosynthesis bifunctional protein HisB, sequence (P06987 whole entry): as above
As to `CCOC(=O)c1[nH]c(C=O)c(C(=O)OCC)c1CC`, half-maximal inhibition (IC50) required 5.6 µM.

On to `Cc1c(C=O)[nH]c(C(=O)OCc2ccccc2)c1C`, for which it took 8.9 µM to reach half-maximal inhibition (IC50).

`CCOC(=O)c1[nH]c(C=O)cc1C`: half-maximal inhibition (IC50) required 9.2 µM. Take `COC(=O)c1[nH]c(C=O)c(C(=O)OC)c1C(C)C`: it took 8.3 µM to reach half-maximal inhibition (IC50). Still for that read-out and setting: the result for `CCc1c(C=O)[nH]c(C(=O)OCc2ccccc2)c1C` reads 24 µM; that for `CCOC(=O)c1[nH]c(C=O)c(C)c1C`, 17.6 µM; that for `O=Cc1[nH]c(C(=O)OCc2ccccc2)c(Cc2ccccc2)c1Cc1ccccc1`, 4 µM. For `CCOC(=O)c1[nH]c(C=O)c(C(=O)OCC)c1C`, the IC50 (commonly the midpoint of a concentration-inhibition curve) was 5.1 µM.

As to `CCOC(=O)CCc1c(C(=O)OCC)[nH]c(C=O)c1CC(=O)OCC`, half-maximal inhibition (IC50) required 12.6 µM. Still for that read-out and setting: the result for `Cc1c(C=O)[nH]c(C=O)c1C` reads 7.1 µM.
